# Source: publication PMC8279414, “Discovery and Synthesis of a Pyrimidine-Based Aurora Kinase Inhibitor to Reduce Levels of MYC Oncoproteins” (Journal of Medicinal Chemistry, 2021)
# What was measured:
# cMYC in NCI-H82 = assay: Western blot analysis of cMYC protein level in NCI-H82 cells; type: cell-based; conditions: 24 h; for effect on cMYC protein level in NCI-H82: various concentrations; for NCI-H82 cMYC, relative protein level: 1.0 μM of compound, mean ± SD, triplicate
# Procedure: (§1) Cancer cells were treated with each of the compounds at different compound concentrations. […] Each lysate was separated by sodium dodecyl sulfate polyacrylamide gel electrophoresis (SDS-PAGE), transferred to polyvinylidene fluoride (PVDF, Millipore, USA) membrane, and blotted with antibodies. […] After the blotting (0.2% casein, 1% BSA, or 5% nonfat milk), membranes were washed with blotting buffer (0.2% casein in 1× PBS or 1× TBST), and corresponding alkaline phosphatase (AP)- or horseradish peroxidase (HRP)-conjugated secondary antibodies (Sigma-Aldrich) were added. The blots were developed by chemiluminescence (PerkinElmer, USA).
# [1] = target: T1, human Aurora A (amino acids 123–401) (Homo sapiens, UniProt O14965); assay: In vitro inhibition of Aurora A kinase activity (Kinase-Glo Plus Luminescent Kinase assay, ATP consumption); type: biochemical; conditions: for IC50: mean of 2–3 independent determinations ± SD, >100 = inhibition < 50% at 100 nM
# T1 construct: N-terminal truncated human Aurora A (amino acids 123–401); GST; made in house; host or cells: Sf9 insect cells
# T1 sequence (O14965 123-401): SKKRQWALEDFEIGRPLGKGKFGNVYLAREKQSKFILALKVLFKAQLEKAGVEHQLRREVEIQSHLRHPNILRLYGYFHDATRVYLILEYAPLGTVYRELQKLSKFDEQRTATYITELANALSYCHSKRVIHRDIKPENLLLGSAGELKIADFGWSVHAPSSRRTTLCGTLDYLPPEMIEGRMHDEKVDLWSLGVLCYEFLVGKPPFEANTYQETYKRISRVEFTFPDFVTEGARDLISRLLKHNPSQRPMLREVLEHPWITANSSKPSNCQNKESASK
# Procedure: The inhibitory potency of the newly synthesized small molecules against Aurora A was first measured in ATP consumption assays using purified Aurora A protein.
# The efficacy of the compounds as inhibitors of Aurora A kinase was assessed in vitro using the Kinase-Glo Plus Luminescent Kinase assay (Promega, USA), as described previously.[45] […] The resulting mixture was incubated at 25 °C for 20 min. A 70 μL aliquot of the mixture was transferred to a black microtiter plate.
# MYCN in SK-N-BE(2) = assay: Western blot analysis of MYCN protein level in SK-N-BE(2) cells; type: cell-based; conditions: 1.0 μM of compound, 24 h, mean ± SD, triplicate
# Procedure: as §1
Structure (SMILES),IC50 [1],reduction of Aurora A inhibitory potency versus 13 [1],effect on cMYC protein level in NCI-H82 (cMYC in NCI-H82),"NCI-H82 cMYC, relative protein level (cMYC in NCI-H82)","SK-N-BE(2) MYCN, relative protein level (MYCN in SK-N-BE(2))"
"CCN(CCCOc1ccc2c(Nc3cc(CC(=O)Nc4cccc(F)c4)[nH]n3)ncnc2c1)CCOP(=O)(O)O [AZD1152, reference compound]",,,limited effect,,
"CCN1CCN(C(=O)Cc2ccc(Nc3ncc(F)c(Nc4ccc(C(=O)Nc5ccccc5Cl)cc4)n3)cc2)CC1 [Aurora A inhibitor I, reference compound]",,,limited effect,,
"CCN1CCN(c2cc(Nc3cc(C)[nH]n3)nc(N[C@H]3CCN(C(=O)c4ccc(Cl)cc4)C3)n2)CC1 [Compound 7, (S)-(4-Chlorophenyl) (3-((4-(4-ethylpiperazin-1-yl)-6-((5-methyl-1H-pyrazol-3-yl)amino)pyrimidin-2-yl)amino)pyrrolidin-1-yl)methanone]",42.9 ± 2.6 nM,,,0.887 ± 0.050,0.889 ± 0.067
"CCN1CCN(c2cc(Nc3cc(C)[nH]n3)nc(N[C@H]3CCN(C(=O)c4ccc(Cl)cc4Cl)C3)n2)CC1 [Compound 8, (S)-(2,4-Dichlorophenyl) (3-((4-(4-ethylpiperazin-1-yl)-6-((5-methyl-1H-pyrazol-3-yl)amino)pyrimidin-2-yl)amino)pyrrolidin-1-yl)methanone]",48.2 ± 9.7 nM,,,1.175 ± 0.124,1.000 ± 0.035
"CCN1CCN(c2cc(Nc3cc(C)[nH]n3)nc(N[C@H]3CCN(C(=O)c4ccc(Cl)cc4C)C3)n2)CC1 [Compound 9, (S)-(4-Chloro-2-methylphenyl) (3-((4-(4-ethylpiperazin-1-yl)-6-((5-methyl-1H-pyrazol-3-yl)amino)pyrimidin-2-yl)amino)pyrrolidin-1-yl)methanone]",64.9 ± 8.5 nM,,,0.984 ± 0.052,1.057 ± 0.312
"CCN1CCN(c2cc(Nc3cc(C)[nH]n3)nc(N[C@H]3CCN(C(=O)c4ccc(Cl)c(F)c4)C3)n2)CC1 [Compound 10, (S)-(4-Chloro-3-fluorophenyl) (3-((4-(4-ethylpiperazin-1-yl)-6-((5-methyl-1H-pyrazol-3-yl)amino)pyrimidin-2-yl)amino)pyrrolidin-1-yl)methanone]",52.2 ± 8.1 nM,,,0.715 ± 0.048,0.578 ± 0.135
"CCN1CCN(c2cc(Nc3cc(C)[nH]n3)nc(N[C@H]3CCN(C(=O)c4ccc(Cl)c(C)c4)C3)n2)CC1 [Compound 11, (S)-(4-Chloro-3-methylphenyl) (3-((4-(4-ethylpiperazin-1-yl)-6-((5-methyl-1H-pyrazol-3-yl)amino)pyrimidin-2-yl)amino)pyrrolidin-1-yl)methanone]",58.1 ± 7.4 nM,,,1.050 ± 0.060,1.030 ± 0.256
"CCN1CCN(c2cc(Nc3cc(C)[nH]n3)nc(N[C@H]3CCN(C(=O)c4cc(Cl)ccc4F)C3)n2)CC1 [Compound 12, (S)-(5-Chloro-2-fluorophenyl) (3-((4-(4-ethylpiperazin-1-yl)-6-((5-methyl-1H-pyrazol-3-yl)amino)pyrimidin-2-yl)amino)pyrrolidin-1-yl)methanone]",45.8 ± 1.4 nM,,,0.559 ± 0.119,0.734 ± 0.104
"CCN1CCN(c2cc(Nc3cc(C)[nH]n3)nc(N[C@H]3CCN(C(=O)c4ccc(C(F)(F)F)cc4F)C3)n2)CC1 [Compound 14, (S)-(3-((4-(4-Ethylpiperazin-1-yl)-6-((5-methyl-1H-pyrazol-3-yl)amino)pyrimidin-2-yl)amino)pyrrolidin-1-yl) (2-fluoro-4-(trifluoromethyl)phenyl)methanone]",> 100 nM,,,,
"CCN1CCN(c2cc(Nc3cc(C)[nH]n3)nc(N[C@H]3CCN(C(=O)c4c(F)cc(Cl)cc4F)C3)n2)CC1 [Compound 15, (S)-(4-Chloro-2,6-difluorophenyl) (3-((4-(4-ethylpiperazin-1-yl)-6-((5-methyl-1H-pyrazol-3-yl)amino)pyrimidin-2-yl)amino)pyrrolidin-1-yl)methanone]",56.7 ± 3.9 nM,,,1.153 ± 0.158,0.757 ± 0.121
"CCN1CCN(c2cc(Nc3cc(C)[nH]n3)nc(N[C@H]3CCN(C(=O)c4cc(F)c(Cl)cc4F)C3)n2)CC1 [Compound 16, (S)-(4-Chloro-2,5-difluorophenyl) (3-((4-(4-ethylpiperazin-1-yl)-6-((5-methyl-1H-pyrazol-3-yl)amino)pyrimidin-2-yl)amino)pyrrolidin-1-yl)methanone]",50.9 ± 2.3 nM,,,0.834 ± 0.121,0.792 ± 0.170
"CCN1CCN(c2cc(Nc3cc(C)[nH]n3)nc(N[C@H]3CCN(C(=O)c4cc(F)c(Cl)c(F)c4)C3)n2)CC1 [Compound 18, (S)-(4-Chloro-3,5-difluorophenyl) (3-((4-(4-ethylpiperazin-1-yl)-6-((5-methyl-1H-pyrazol-3-yl)amino)pyrimidin-2-yl)amino)pyrrolidin-1-yl)methanone]",> 100 nM,,,,
"CCN1CCN(c2cc(Nc3cc(C)[nH]n3)nc(N[C@H]3CCN(C(=O)c4cc(F)c(F)cc4F)C3)n2)CC1 [Compound 19, (S)-(3-((4-(4-Ethylpiperazin-1-yl)-6-((5-methyl-1H-pyrazol-3-yl)amino)pyrimidin-2-yl)amino)pyrrolidin-1-yl) (2,4,5-trifluorophenyl)methanone]",> 100 nM,,,,
"CCN1CCN(c2cc(Nc3cc(C)[nH]n3)nc(N[C@H]3CCN(C(=O)c4ccc(Cl)nc4F)C3)n2)CC1 [Compound 20, (S)-(6-Chloro-2-fluoropyridin-3-yl) (3-((4-(4-ethylpiperazin-1-yl)-6-((5-methyl-1H-pyrazol-3-yl)amino)pyrimidin-2-yl)amino)pyrrolidin-1-yl)methanone]",> 100 nM,more than 2.5 fold,,,
"CCN1CCN(c2cc(Nc3cc(C)[nH]n3)nc(N[C@H]3CCN(S(=O)(=O)c4ccc(Cl)cc4F)C3)n2)CC1 [Compound 21, (S)-N^2-(1-((4-Chloro-2-fluorophenyl)sulfonyl)pyrrolidin-3-yl)-6-(4-ethylpiperazin-1-yl)-N^4-(5-methyl-1H-pyrazol-3-yl)pyrimidine-2,4-diamine]",> 100 nM,more than 2.5 fold,,,

# The remaining molecules from weak to strong by IC50 [1], led by results:
IC50 [1],reduction of Aurora A inhibitory potency versus 13 [1],Structure (SMILES),effect on cMYC protein level in NCI-H82 (cMYC in NCI-H82),"NCI-H82 cMYC, relative protein level (cMYC in NCI-H82)","SK-N-BE(2) MYCN, relative protein level (MYCN in SK-N-BE(2))"
40.8 ± 2.8 nM,,"Cc1cc(Nc2cc(N(C)CCN(C)C)nc(N[C@H]3CCN(C(=O)c4cccc(Cl)c4F)C3)n2)n[nH]1 [Compound 5, (S)-(3-Chloro-2-fluorophenyl) (3-((4-((2-(dimethylamino)ethyl) (methyl)amino)-6-((5-methyl-1H-pyrazol-3-yl)amino)pyrimidin-2-yl)amino)pyrrolidin-1-yl)methanone]",,,
29.8 ± 2.5 nM,,"Cc1cc(Nc2cc(N3CC(N(C)C)C3)nc(N[C@H]3CCN(C(=O)c4cccc(Cl)c4F)C3)n2)n[nH]1 [Compound 3, (S)-(3-Chloro-2-fluorophenyl) (3-((4-(3-(dimethylamino)azetidin-1-yl)-6-((5-methyl-1H-pyrazol-3-yl)amino)pyrimidin-2-yl)amino)pyrrolidin-1-yl)methanone]",,,
29.8 ± 0.7 nM,,"Cc1cc(Nc2cc(N3CC[C@H](N(C)C)C3)nc(N[C@H]3CCN(C(=O)c4cccc(Cl)c4F)C3)n2)n[nH]1 [Compound 4, (3-Chloro-2-fluorophenyl) ((S)-3-((4-((S)-3-(dimethylamino)pyrrolidin-1-yl)-6-((5-methyl-1H-pyrazol-3-yl)amino)pyrimidin-2-yl)amino)pyrrolidin-1-yl)methanone]",,,
29 ± 6.7 nM,,"CCN1CCN(c2cc(Nc3cc(C)[nH]n3)nc(N[C@H]3CCN(C(=O)c4ccccc4)C3)n2)CC1 [Compound 6, (S)-(3-((4-(4-Ethylpiperazin-1-yl)-6-((5-methyl-1H-pyrazol-3-yl)amino)pyrimidin-2-yl)amino)pyrrolidin-1-yl) (phenyl)methanone]",,,
25.7 ± 4.9 nM,,"Cc1cc(Nc2cc(N3CCN(C)CC3)nc(N[C@H]3CCN(C(=O)c4cccc(Cl)c4F)C3)n2)n[nH]1 [Compound 2, (S)-(3-Chloro-2-fluorophenyl) (3-((4-((5-methyl-1H-pyrazol-3-yl)amino)-6-(4-methylpiperazin-1-yl)pyrimidin-2-yl)amino)pyrrolidin-1-yl)methanone]",,,
24.1 ± 7.9 nM,,"CCN1CCN(c2cc(Nc3cc(C)[nH]n3)nc(N[C@H]3CCN(C(=O)c4cccc(Cl)c4F)C3)n2)CC1 [Compound 1, (S)-(3-Chloro-2-fluorophenyl) (3-((4-(4-ethylpiperazin-1-yl)-6-((5-methyl-1H-pyrazol-3-yl)amino)pyrimidin-2-yl)amino)pyrrolidin-1-yl)methanone]",,0.781 ± 0.015,
